This passage reports melting point results from a melting point compilation (Tetko et al.; mined from patent text by program, amines drawn as free bases though some values may be those of a salt).

SMILES strings stand for the structures.

Turning to `COc1ccccc1Oc1c(Cl)nc(-c2ccoc2)nc1NS(=O)(=O)c1ccc(C(C)(C)C)cc1`, the melting point (usually the temperature of the solid-liquid transition) was over 300 °C. To `NS(=O)(=O)c1cccc(C2CC2)c1` belongs 71.5 to 72.9 °C; to `Nc1nc(NC2CCC(CO)C2)c2ncn(C3C=CC(CO)C3)c2n1` (centres undefined), 177 to 180 °C.

Regarding `CC(C)c1ccc(NC(=O)C2CCCc3ccccc32)cc1` (centres undefined), the melting point was found to be 163 °C. To `O=C(O)c1cccc(Cn2cc(C3c4ccccc4C=Cc4ccccc43)c(=S)[nH]c2=O)c1` belongs over 230 °C. To `OC1(C2=NCCCN2)c2ccccc2-c2ccccc21` belongs 242 to 245 °C; to `CCc1ccc(CCC(=O)O)c(C(=O)O)c1`, 174 °C; to `CNC(=O)C1Cc2c(n(C)c3ccc(OCc4ccccc4)cc23)C1` (centres undefined), 176 to 177 °C.

`CCOc1nn(Cc2ccc(OCc3nc4ccccc4n3C)cc2)cc1CCC(=O)O` had a melting point of 177 to 178 °C. To `O=C(CBr)Nc1ccc(Cl)cc1C(=O)c1c(F)cccc1F` belongs 146 to 148 °C. Molecule `Cc1c(NC(=O)CC(C)(C)C)cc2c(c1C)OC(C)(C)C2c1cccs1` (centres undefined) came in with a melting point of 137 to 138 °C. For `O=S(=O)(/C=C/c1ccccc1)CS(=O)(=O)/C=C/c1ccccc1`, the melting point lay within 128 to 130 °C. `Cc1csc(-c2ccc3c(c2)c2cc(-c4ccc(Cl)cc4Cl)c(=O)n(C)c2n3C)n1`: the melting point lay within 255 to 257 °C. Then `CN1CCN(CC2CCN(c3ccc(Nc4ncc5ccc(-c6cccc(S(=O)(=O)NC(C)(C)C)c6)n5n4)cc3)CC2)CC1`, with 233 to 235 °C; and `CN(C)S(=O)(=O)c1cc2c(c(Cl)c1Cl)OC(C(=O)OCC(=O)O)C2` (centres undefined), with 149 to 150 °C. To `CCc1nn(Cc2nccn2C)c2c(=O)[nH]c(-c3cc(S(C)(=O)=O)ccc3OCC(C)C)nc12` belongs 253 to 254 °C. To `COC(=O)c1ccc(Cl)cn1` belongs 83 to 86 °C; to `CC(=O)c1ccc(NC(=O)NN2CC=CCC2)cc1`, 142 to 143 °C.

As to `CC(C)=CCc1c(O)ccc(C(=O)C=Cc2ccc(O)cc2O)c1O`, the melting point was 150 to 151 °C. `COc1ccc(-c2c(Cl)c(Cn3cncn3)nc3sc4c(c23)CCN(Cc2ccccc2)C4)cc1OC` registered a melting point of 165 to 166 °C. In the case of `CC(=O)N(c1ccc(N2CCN(C)CC2)cc1)c1ncc2c(n1)S/C(=C/c1cn(C(C)=O)c3ccccc13)C(=O)N2`, the melting point was in the range of 289 to 292 °C. To `CCCCc1nc(C(C)=O)c(C#N)[nH]1` belongs 77 to 78 °C; to `CC(OCc1ccc(-c2ccccc2)cc1)(C(=O)O)C(F)(F)F` (centres undefined), 80 to 81 °C. Then `O=C(O)c1ccc(COc2ccc(-c3ccc(-c4c(Cc5ccccc5)oc5ccccc45)cc3)cc2)cc1`, with 208 to 210 °C; and `O=c1oc(-c2ccc(OCCO)cc2)cc(O)c1SCCc1ccccc1`, with 123 to 125 °C. Then `Cc1cc(C)cc(-c2cc(O)c(Sc3ccccc3CC3CC3)c(=O)o2)c1`, with 168 °C. In the case of `CCCCC(=O)Nc1ccc2c(c1)C(=O)OC2CCCC` (centres undefined), the melting point is 137 to 139 °C. To `Nc1c(Br)cc(Br)n2nc(SCc3ccccc3)nc12` belongs 116 to 118 °C; to `CCOc1cc2c(cc1OCC)C(C(C#N)SCCC(=O)O)=NCC2` (centres undefined), 106 to 108 °C. Then `CN(c1cccc2cc(-c3nccs3)[nH]c12)S(=O)(=O)N1CCCC1`, with 108 °C. In turn, `COC(=O)c1ccc(OC)c(NC(=N)c2ccc(F)cc2Cl)c1` displayed a melting point of 120 °C.

Turning to `Cc1ccc(NC(=O)c2cccc(C(F)(F)F)c2)cc1-c1ccc2scnc2c1`, the melting point is 90 to 93 °C. `O[C@@H]([C@H](O)[C@@H](COc1ccccc1)OCc1ccccc1)[C@@H](COc1ccccc1)OCc1ccccc1` had a melting point of 80 °C. Then `Oc1ccccc1CNNCc1ccccc1O`, with 315 to 316 °C.
